Earlier results, collected in US20230018472A1, “RHINENCHYSIS COMPOSITION CONTAINING OLOPATADINE” (TOKO YAKUHIN KOGYO CO., LTD., priority 2019, published 2023).
Read-outs that look alike come from different tables or passages of the source.

Solubility of olopatadine (around neutral pH): very low | Solubility of olopatadine (concentration 0.2% or more as free base, solution having pH of 5 or higher): not soluble
Structure (SMILES): CN(C)CC/C=C1/c2ccccc2COc2ccc(CC(=O)O)cc21 [olopatadine]
